Biological target: Probable nicotinate-nucleotide adenylyltransferase (Staphylococcus aureus (strain N315)) (UniProt P65502)
Test: inhibitors of S. aureus NadD, dose response, biochemical, colorimetric, uHTS hits (AID 624317)
Conditions: purified NadD enzyme, colorimetric activity assay

IC50: 35.9 µM
Structure (SMILES): C[c-]1[c-](C)[c-](C)[c-](C)[c-]1C.[Fe].c1cc2nccc(N3CCCC3)[c-]2c1 (stereo unspecified)
